Values quoted from earlier work in paper PMC11020070, “Discovery of Protease-Activated Receptor 4 (PAR4)-Tethered Ligand Antagonists Using Ultralarge Virtual Screening” (ACS Pharmacology & Translational Science, 2024).

Assays:
[1] = target: T1, PAR1 (Homo sapiens, UniProt P25116); set-up: method as in PMID 22443427, PMID 22077816; settings: cited from earlier work
T1 construct: endogenous in cells; host or cells: platelets
T1 sequence (P25116 22-425): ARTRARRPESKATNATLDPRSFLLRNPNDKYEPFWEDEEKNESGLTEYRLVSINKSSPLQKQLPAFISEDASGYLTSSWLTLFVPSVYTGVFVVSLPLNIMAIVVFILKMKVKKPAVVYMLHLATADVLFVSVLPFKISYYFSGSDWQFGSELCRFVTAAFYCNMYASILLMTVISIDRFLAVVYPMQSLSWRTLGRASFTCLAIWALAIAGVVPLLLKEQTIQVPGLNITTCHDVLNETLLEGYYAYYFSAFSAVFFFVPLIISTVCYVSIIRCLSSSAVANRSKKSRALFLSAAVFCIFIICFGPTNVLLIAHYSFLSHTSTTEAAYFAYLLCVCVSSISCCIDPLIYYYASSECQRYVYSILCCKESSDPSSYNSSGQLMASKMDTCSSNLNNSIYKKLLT

[2] = system: PAR4; set-up: method as in PMID 28053157; settings: cited from earlier work
[3] = set-up: method as in PMID 35758258, PMID 23222541; settings: phase I, healthy participants; cited from earlier work
[4] = system: PAR4; set-up: method as in PMID 27777004; settings: read-out: IC50 against γ-thrombin; cited from earlier work

CCOC(=O)N[C@@H]1CC[C@@H]2[C@@H](C1)C[C@H]1C(=O)O[C@H](C)[C@H]1[C@H]2/C=C/c1ccc(-c2cccc(F)c2)cn1 [vorapaxar]
primary efficacy outcome ([1]; added to standard care, acute coronary syndrome, phase 3): failed to meet its primary efficacy outcome | bleeding ([1]; phase 3, especially intracranial hemorrhage): excess of major bleeding

COc1cc(OCc2nc(N3CCOCC3)sc2C)c2cc(-c3cn4nc(OC)sc4n3)oc2c1 [BMS-986120]
antithrombotic activity ([2]; cynomolgus monkey arterial thrombosis model): potent and highly efficacious antithrombotic activity | bleeding liability ([2]; nonhuman primate model): low bleeding liability | safety and tolerability [3]: safe and well tolerated

COc1nn2cc(-c3c(CO)n(Cc4ccccc4Cl)c4ccc(OC(F)(F)F)cc34)nc2s1 [Compound 6]
IC50 [4]: 4.35 µM
